Data from patent US6875761B2 (Eisai Co., Ltd., priority 1997, dated 2005).
pKi: −log10 of the molar value. Structures can show the parent of a compound that is named as a salt.

What was measured:
serotonin 1A receptor = molecular target: T1, serotonin 1A receptor (Rattus norvegicus, UniProt P19327); experiment: Binding test on [3H] 8-hydroxy-dipropylaminotetralin, hippocampus receptor fraction; set-up: species or system SD rats; details: rat hippocampus receptor fraction, 0.5 nM [3H] 8-OH-DPAT, room temperature 30 min; read-out: 5HT1
T1 construct: To the receptor fraction of the hippocampus were added a test compound and 0.5 nM of [^3H]; 8-hydroxy-dipropylaminotetralin; from tissue; host or cells: rat hippocampus membrane fraction
T1 sequence (P19327 1-422): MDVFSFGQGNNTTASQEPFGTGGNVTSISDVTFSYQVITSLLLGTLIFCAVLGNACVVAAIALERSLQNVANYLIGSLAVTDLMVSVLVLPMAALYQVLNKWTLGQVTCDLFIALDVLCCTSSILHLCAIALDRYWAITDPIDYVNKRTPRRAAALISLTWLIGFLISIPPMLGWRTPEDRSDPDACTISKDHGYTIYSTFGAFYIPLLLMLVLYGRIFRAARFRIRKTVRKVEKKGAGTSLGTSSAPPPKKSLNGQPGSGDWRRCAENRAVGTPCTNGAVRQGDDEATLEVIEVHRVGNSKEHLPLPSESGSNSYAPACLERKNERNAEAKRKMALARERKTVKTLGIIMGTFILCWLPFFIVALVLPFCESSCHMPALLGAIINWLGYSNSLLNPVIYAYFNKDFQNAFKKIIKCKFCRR

serotonin 2 receptor = molecular target: T2, serotonin 2 receptor (Rattus norvegicus, UniProt P14842); experiment: Binding test on [3H] ketanserin, cerebral cortex receptor fraction; set-up: species or system SD rats; details: 0.3 nM [3H] ketanserin, 37° C. 15 min, read-out: 5HT2
T2 construct: To the receptor fraction of the cerebral cortex were added a test compound and 0.3 nM of [^3H] ketanserin; from tissue; host or cells: rat cerebral cortex membrane fraction
T2 sequence (P14842 whole entry): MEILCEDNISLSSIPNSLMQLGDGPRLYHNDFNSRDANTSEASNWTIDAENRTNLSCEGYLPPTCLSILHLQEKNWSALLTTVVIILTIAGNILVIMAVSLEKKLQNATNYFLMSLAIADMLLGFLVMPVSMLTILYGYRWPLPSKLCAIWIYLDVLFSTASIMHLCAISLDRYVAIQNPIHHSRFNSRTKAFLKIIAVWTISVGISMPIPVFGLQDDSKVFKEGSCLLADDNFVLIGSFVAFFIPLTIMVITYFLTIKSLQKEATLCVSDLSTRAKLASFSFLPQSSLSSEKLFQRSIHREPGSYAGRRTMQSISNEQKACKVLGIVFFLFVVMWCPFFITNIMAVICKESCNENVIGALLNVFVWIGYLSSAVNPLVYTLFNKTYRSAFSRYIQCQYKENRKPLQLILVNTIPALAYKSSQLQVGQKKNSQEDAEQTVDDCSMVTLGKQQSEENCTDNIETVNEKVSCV

Row | Structure (SMILES) | pKi (serotonin 1A receptor) | pKi (serotonin 2 receptor)
1 | CCN1CCN(c2nc(-c3csc(CO)c3)cc3ccccc23)CC1 [Example 161, 1-(1-ethylpiperazin-4-yl)-3-(2-hydroxymethylthiophen-4-yl)isoquinoline dihydrochloride] | 7.97 | 7.62
2 | CCC(O)c1cc(-c2cc3ccccc3c(N3CCN(CC)CC3)n2)cs1 (stereo not drawn) [Example 164, 1-(1-ethylpiperazin-4-yl)-3-[2-(1-hydroxypropyl)thiophen-4-yl]isoquinoline hydrochloride] | 8.03 | 7.93
3 | CCC(O)c1ccc(-c2cc3ccccc3c(N3CCN(CC)CC3)n2)s1 (stereo not drawn) [Example 165, 1-(1-Ethylpiperazin-4-yl)-3-[2-(1-hydroxypropyl)thiophen-5-yl)isoquinoline hydrochloride] | 7.49 | 7.60
4 | CCC(O)c1ncc(-c2cc3ccccc3c(N3CCN(CC)CC3)n2)s1 (stereo not drawn) [Example 170, 1-(1-ethylpiperazin-4-yl)-3-[(1-hydroxypropyl)thiazol-5-yl]isoquinoline dihydrochloride] | 8.52 | 7.60
5 | CCN1CCN(c2nc(-c3cnc(CCCOC)s3)cc3ccccc23)CC1 [Example 172, 1-(1-ethylpiperazin-4-yl)-3-[2-(3-methoxypropyl)thiazol-5-yl]isoquinoline oxalate] | 8.33 | 7.44
6 | CCCC(=O)Nc1ncc(-c2cc3ccccc3c(N3CCN(CC)CC3)n2)cn1 [Example 174, 3-(2-Propylcarbonylaminopyrimidin-5-Yl)-1-(4-Ethylpiperazin-1-Yl)Isoquinoline Hydrochlroide] | 7.54 | 8.14
7 | CCN1CCN(c2nc(-c3ccc(C4=CCOCC4)s3)cc3ccccc23)CC1 [Example 176, 3-[2-(5,6-Dihydro-2H-Pyran-4-Yl)Thiophen-5-Yl]-1-[4-Ethylpiperazin-1-Yl)Isoquinoline Hydrochloride] | 6.81 | 7.91
8 | CCN1CCN(c2nc(C#Cc3ccccc3)cc3ccccc23)CC1 [Example 177, 1-(1-Ethylpiperazin-4-Yl)-3-(Phenylethynyl)Isoquinoline Dihydrochloride] | 7.35 | 9.30
9 | CCN1CCN(c2nc(C#CCCc3ccccc3)cc3ccccc23)CC1 [Example 182, 1-(1-Ethylpiperazin-4-Yl)-3-[4-Phenyl-1-Butynyl)Isoquinoline Dihydrochloride] | 8.00 | 7.80

The remaining molecules from weak to strong by pKi (serotonin 1A receptor), led by results:

Row | pKi (serotonin 1A receptor) | pKi (serotonin 2 receptor) | Structure (SMILES)
10 | 7.25 | 9.70 | CCN1CCN(c2nc(C#Cc3ccc(OC)cc3)cc3ccccc23)CC1 [Example 178, 1-(1-Ethylpiperazin-4-Yl)-3-(4-Methoxyphenyl)Ethynylisoquinoline Dihydrochloride]
11 | 7.51 | 6.91 | CCN1CCN(c2nc(C#CC(=O)c3ccccc3)cc3ccccc23)CC1 [Example 184, 1-(1-Ethylpiperazin-4-Yl)-3-Benzoylethynylisoquinoline Oxalate]
12 | 7.60 | 7.72 | CCN1CCN(c2nc(-c3ccc(CCO)s3)cc3ccccc23)CC1 [Example 163, 1-(1-ethylpiperazin-4-yl)-3-[2-(2-hydroxyethyl)thiophen-5-yl]isoquinoline dihydrochloride]
13 | 7.67 | 8.70 | CCN1CCN(c2nc(C#Cc3ccc(OC)cc3OC)cc3ccccc23)CC1 [Example 185, 1-(1-Ethylpiperazin-4-Yl)-3-(2,4-Dimethoxyphenylethynyl)Isoquinoline Dihydrochloride]
14 | 7.97 | 7.07 | CCN1CCN(c2nc(-c3ccc(CO)s3)cc3ccccc23)CC1 [Example 162, 1-(1-ethylpiperazin-4-yl)-3-(2-hydroxymethylthiophen-5-yl)isoquinoline dihydrochloride]
15 | 8.33 | 7.66 | CCN1CCN(c2nc(-c3cnc(CCCO)s3)cc3ccccc23)CC1 [Example 171, 1-(1-ethylpiperazin-4-yl)-3-[2-(3-hydroxypropyl)thiazol-5-yl]isoquinoline oxalate]
